Experimental data as given in patent US12522587B2, “Cancer treatments targeting cancer stem cells” (Remedy Plan, Inc., priority 2018, dated 2026).

System: AGS human gastric adenocarcinoma cells
Experiment: Human microarray study (Affymetrix Clariom S) of treated AGS cells
Assay type: cell-based
Conditions: two days, positive = downregulated
Method: AGS human gastric adenocarcinoma cells were treated with compound I-1, or DMSO alone (as a negative control) for two days. After two days, RNA was isolated from compound I-1 treated cells and DMSO treated cells, in duplicate, and subjected to microarray analysis using AFFYMETRIX CLARIOM S microarrays. Data were represented as fold change relative to the compound I-1 treated cells, negative values represented genes that were on higher in compound I-1 treated cells than in DMSO treated cells, and positive values represented genes that were on higher in DMSO treated cells than in compound I-1 treated cells. Values were averaged for the duplicate samples. We included data for the genes whose expression was altered by more than 3 fold, either up or down, in response to compound I-1.
Negative numbers indicate fold upregulation upon drug treatment. Positive numbers indicate fold downregulation upon drug treatment. […] In addition, Chac1, PCK2, and SLC7A11 were all shown to have a tumor promoting activity and to be associated with the more dangerous and lethal forms of cancer, and these three genes were the three most strongly repressed genes measured in this analysis. There were other examples in the data that supported this model, but the overall model was that compound I-1 increased the expression of tumor suppressor genes, and decreased the expression of tumor promoting genes.

CCC(=O)N1CCc2cc(-c3ccc(C(=O)NCc4cccnc4)cc3)ccc21 [Compound I-1]
Fold Change CEBPG: 3.29 fold | Fold Change CHAC1: 43.64 fold | Fold Change CRNDE: 7.6 fold | Fold Change CTH: 12.23 fold | Fold Change CTNS: 3.16 fold | Fold Change CYP1A1: 12.34 fold | Fold Change DCLRE1A: 3.36 fold | Fold Change DDIT3: 3.76 fold | Fold Change DDIT4: 14.73 fold | Fold Change DEPTOR: 3.05 fold | Fold Change DMBT1: 3.25 fold | Fold Change EEF2KMT: 4.01 fold | Fold Change EFHC1: 3.67 fold | Fold Change EIF4EBP1: 6.66 fold | Fold Change ERICH2: 3.35 fold | Fold Change EXOSC8: 3.68 fold | Fold Change FAIM: 3.09 fold | Fold Change FAM27E3: 4.39 fold | Fold Change FAM86B1: 3.53 fold | Fold Change FAM86C1: 3.18 fold | Fold Change FAM111B: 3.46 fold | Fold Change FAM216A: 3 fold | Fold Change FIGNL1: 4.84 fold | Fold Change FILIP1L: 3.7 fold | Fold Change FUT1: 3.48 fold | Fold Change GARS: 3.24 fold | Fold Change GEN1: 3.39 fold | Fold Change GPX8: 3.7 fold | Fold Change GRB10: 3.1 fold | Fold Change GSTM2: 3.25 fold | Fold Change GSTM4: 4.02 fold | Fold Change GTPBP2: 4.3 fold | Fold Change H1F0: 3.59 fold | Fold Change HAX1: 3.68 fold | Fold Change HIST1H1B: 4.91 fold | Fold Change HIST1H1C: 4.26 fold | Fold Change HIST1H1D: 5.18 fold | Fold Change HIST1H1E: 3.75 fold | Fold Change HIST1H2AB: 6.88 fold | Fold Change HIST1H2AE: 5.92 fold | Fold Change HIST1H2AG: 5.06 fold | Fold Change HIST1H2AI: 5.81 fold | Fold Change HIST1H2AJ: 3.77 fold | Fold Change HIST1H2AK: 3.52 fold | Fold Change HIST1H2AL; HIST1H2BN: 3.72 fold | Fold Change HIST1H2AM; HIST1H3J: 6.91 fold | Fold Change HIST1H2BB: 3.09 fold | Fold Change HIST1H2BE: 3.05 fold | Fold Change HIST1H2BF: 3.75 fold | Fold Change HIST1H2BG: 3.8 fold | Fold Change HIST1H2BH: 3.09 fold | Fold Change HIST1H2BI: 8.02 fold | Fold Change HIST1H2BJ: 4.83 fold | Fold Change HIST1H2BK: 3.06 fold | Fold Change HIST1H2BL: 5.51 fold | Fold Change HIST1H2BM: 12.33 fold | Fold Change HIST1H3A: 3.04 fold | Fold Change HIST1H3B: 5.94 fold | Fold Change HIST1H3D; HIST1H2AD: 4.82 fold | Fold Change HIST1H3F: 6.21 fold | Fold Change HIST1H3G: 9.34 fold | Fold Change HIST1H3H: 7.63 fold | Fold Change HIST1H3I: 4.49 fold | Fold Change HIST1H4A: 5.75 fold | Fold Change HIST1H4D: 3.02 fold | Fold Change HIST1H4H: 3.25 fold | Fold Change HIST2H2AA3; HIST2H2AA4: 3.2 fold | Fold Change HIST2H2AA4; HIST2H2AA3: 3.08 fold | Fold Change HIST2H3A: 10.31 fold | Fold Change HIST2H3A; HIST2H3C: 8.95 fold | Fold Change HIST2H3D: 4.21 fold | Fold Change HIST2H4A; HIST2H4B: 3.94 fold | Fold Change HIST2H4B; HIST2H4A: 3.79 fold | Fold Change HMMR: 4.62 fold | Fold Change HOXB9: 5.66 fold | Fold Change IARS: 3.29 fold | Fold Change IFRD1: 6.11 fold | Fold Change IFT88: 4.63 fold | Fold Change IGF2BP3: 5.34 fold | Fold Change IL20RB: 4.75 fold | Fold Change INHBE: 12.74 fold | Fold Change IRAK1BP1: 3.59 fold | Fold Change IZUMO1: 4.5 fold | Fold Change JDP2: 4.94 fold | Fold Change KIF15: 3.66 fold | Fold Change KIF21B: 3.52 fold | Fold Change KLHL5: 3.17 fold | Fold Change LGALS4: 3.06 fold | Fold Change LMO4: 3.1 fold | Fold Change LRRC8D: 3.82 fold | Fold Change LYRM7: 3.58 fold | Fold Change MARS; MIR6758: 3.79 fold | Fold Change MAT2A: 5.04 fold | Fold Change MB21D2: 4.66 fold | Fold Change METTL4: 4.39 fold | Fold Change MINA: 3.05 fold | Fold Change MIR17HG; MIR17; MIR18A; MIR19A; MIR19B1; MIR20A; MIR92A1: 3.18 fold | Fold Change MOCOS: 5.87 fold | Fold Change MTHFD2: 3.26 fold | Fold Change NCOA5: 3 fold | Fold Change NCOA7: 3.2 fold | Fold Change NEDD4: 3.11 fold | Fold Change NOX1: 6.01 fold | Fold Change NPIPA2: 3.06 fold | Fold Change NPIPA3: 3.17 fold | Fold Change NPIPA5: 3.15 fold | Fold Change NPIPA7; NPIPA8; PKD1P1: 3.01 fold | Fold Change NPIPA8: 3.2 fold | Fold Change NUPR1: 5.76 fold | Fold Change ORAOV1: 3.3 fold | Fold Change PCK2: 17.83 fold | Fold Change PDK1: 3.5 fold | Fold Change PHLDB2; PLCXD2: 3.75 fold | Fold Change PKD1; MIR6511B2; MIR6511B1: 3.36 fold | Fold Change PKD2: 3.76 fold | Fold Change PKDCC: 3.89 fold | Fold Change PRIM1: 4.42 fold | Fold Change PSAT1: 7.92 fold | Fold Change PSPH: 4.23 fold | Fold Change PTER: 3.93 fold | Fold Change PTPRB: 3.96 fold | Fold Change PYROXD1: 3.74 fold | Fold Change RASGRP3: 3.19 fold | Fold Change RASIP1: 3.21 fold | Fold Change RBBP9: 3.05 fold | Fold Change RBCK1: 4.36 fold | Fold Change REG4: 3.04 fold | Fold Change RFXAP: 4.14 fold | Fold Change RNF170; MIR4469: 3.95 fold | Fold Change S100P: 4.36 fold | Fold Change SERPINB8: 6.07 fold | Fold Change SETMAR: 3.32 fold | Fold Change SH2B3: 4.5 fold | Fold Change SHMT2: 3.22 fold | Fold Change SLC1A4: 8.26 fold | Fold Change SLC1A5: 4.04 fold | Fold Change SLC6A9: 7.78 fold | Fold Change SLC7A1: 3.19 fold | Fold Change SLC7A5: 7.31 fold | Fold Change SLC7A11: 15.27 fold | Fold Change SLC16A4: 3.65 fold | Fold Change SLC38A1: 3.03 fold | Fold Change SLC43A1: 8.25 fold | Fold Change SLC46A1: 5.39 fold | Fold Change SLCO1B3: 3.61 fold | Fold Change ST6GALNAC3: 4.78 fold | Fold Change STAMBPL1: 3 fold | Fold Change STPG1: 3.97 fold | Fold Change SYNPO: 3.2 fold | Fold Change TADA2A: 3.37 fold | Fold Change TFF1: 11.81 fold | Fold Change THOC1: 3.18 fold | Fold Change TMEM218: 3.29 fold | Fold Change TNFRSF9: 8.19 fold | Fold Change TSEN15: 3.5 fold | Fold Change TUBE1: 5.83 fold | Fold Change UNC93A: 3.31 fold | Fold Change WARS: 4.85 fold | Fold Change WBP4: 3.63 fold | Fold Change XPA: 3.25 fold | Fold Change XRCC2: 3.5 fold | Fold Change YAE1D1: 3.02 fold | Fold Change ZBED8: 4.58 fold | Fold Change ZC3H8: 4.04 fold | Fold Change ZCCHC8: 3.9 fold | Fold Change ZFAND1: 3.29 fold | Fold Change ZNF302: 4.83 fold | Fold Change ZNF518A: 4.12 fold | Fold Change ZNF780B (first ZNF780B entry): 3.19 fold | Fold Change ZNF780B (second ZNF780B entry): 3.19 fold
